In PubChem BioAssay (NCI):
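A five-concentration, 48-hour dose response in 96-well plates underlies each endpoint, interpolated linearly between surrounding concentrations. Abbreviation: GI50, concentration required for 50% inhibition of growth. TGI: total growth inhibition.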

How the values were obtained:
Test in all cases: inhibition of tumour cell growth, NCI panel, 48 h
[1] = tested on: PC-3 prostate
[2] = tested on: SK-MEL-28 melanoma
[3] = tested on: SK-OV-3 ovarian
[4] = tested on: DU-145 prostate
[5] = tested on: HL-60(TB) leukemia
[6] = tested on: ACHN renal
[7] = tested on: RPMI-8226 leukemia
[8] = tested on: SK-MEL-2 melanoma
[9] = tested on: MALME-3M melanoma
[10] = tested on: TK-10 renal
[11] = tested on: HT29 colon
[12] = tested on: SR leukemia
[13] = tested on: MOLT-4 leukemia
[14] = tested on: MCF7 breast
[15] = tested on: SNB-19 CNS
[16] = tested on: OVCAR-5 ovarian
[17] = tested on: HCC-2998 colon
[18] = tested on: NCI/ADR-RES ovarian
[19] = tested on: EKVX NSCLC
[20] = tested on: CCRF-CEM leukemia
[21] = tested on: HS 578T breast
[22] = tested on: SK-MEL-5 melanoma
[23] = tested on: HCT-116 colon
[24] = tested on: A549 NSCLC
[25] = tested on: HOP-92 NSCLC
[26] = tested on: U251 CNS
[27] = tested on: HOP-62 NSCLC
[28] = tested on: CAKI-1 renal
[29] = tested on: 786-0 renal

## O=[N+]([O-])c1ccc2c(c1)C(=NO)c1cc([N+](=O)[O-])ccc1-2
[1]
  GI50: 24.2 µM
  TGI: > 100 µM
[2]
  GI50: 43.4 µM
  TGI: > 100 µM
[3]
  GI50: > 100 µM
  TGI: > 100 µM
[4]
  GI50: 55.1 µM
  TGI: > 100 µM
[5]
  GI50: 4.19 µM
  TGI: 22.9 µM
[6]
  GI50: 4.98 µM
  TGI: 39.7 µM
[7]
  GI50: 29.4 µM
  TGI: > 100 µM
[8]
  GI50: > 100 µM
  TGI: > 100 µM
[9]
  GI50: 11.7 µM
  TGI: > 100 µM
[10]
  GI50: 12.6 µM
  TGI: > 100 µM
[11]
  GI50: 19.5 µM
  TGI: > 100 µM
[12]
  GI50: 2.88 µM
  TGI: 9.86 µM
[13]
  GI50: 3.25 µM
  TGI: 7.61 µM
[14]
  GI50: 4.92 µM
  TGI: > 100 µM
[15]
  GI50: > 100 µM
  TGI: > 100 µM
[16]
  GI50: > 100 µM
  TGI: > 100 µM
[17]
  GI50: 37.1 µM
  TGI: > 100 µM
[18]
  GI50: 16.3 µM
  TGI: > 100 µM
[19]
  GI50: 12.9 µM
  TGI: > 100 µM
[20]
  GI50: 13.6 µM
  TGI: > 100 µM
[21]
  GI50: > 100 µM
  TGI: > 100 µM
[22]
  GI50: 12.1 µM
  TGI: 34 µM
[23]
  GI50: 6.71 µM
  TGI: > 100 µM
[24]
  GI50: 7.23 µM
  TGI: > 100 µM
[25]
  GI50: 53.7 µM
  TGI: > 100 µM
[26]
  GI50: 10.7 µM
  TGI: > 100 µM
[27]
  GI50: 46.5 µM
  TGI: > 100 µM
[28]
  GI50: 6.46 µM
  TGI: > 100 µM
[29]
  GI50: 10.8 µM
  TGI: > 100 µM
